PubChem BioAssay (NCI)
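Compound exposure: 48 hours, 5 concentrations, 96-well plates. GI50 = concentration required for 50% inhibition of growth. The concentration for full growth arrest is given as TGI.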

What was measured:
Test in all cases: growth of human tumour cells (NCI), 48 h
OVCAR-5 ovarian = system: OVCAR-5 ovarian
SF-539 CNS = system: SF-539 CNS
NCI/ADR-RES ovarian = system: NCI/ADR-RES ovarian
EKVX NSCLC = system: EKVX NSCLC
HCT-116 colon = system: HCT-116 colon
CAKI-1 renal = system: CAKI-1 renal
LOX IMVI melanoma = system: LOX IMVI melanoma
TK-10 renal = system: TK-10 renal
SNB-19 CNS = system: SNB-19 CNS
SK-MEL-5 melanoma = system: SK-MEL-5 melanoma
MDA-MB-231 breast = system: MDA-MB-231 breast
SK-MEL-28 melanoma = system: SK-MEL-28 melanoma
SF-295 CNS = system: SF-295 CNS
HOP-62 NSCLC = system: HOP-62 NSCLC
UO-31 renal = system: UO-31 renal
UACC-257 melanoma = system: UACC-257 melanoma
UACC-62 melanoma = system: UACC-62 melanoma
RPMI-8226 leukemia = system: RPMI-8226 leukemia
SW-620 colon = system: SW-620 colon
OVCAR-8 ovarian = system: OVCAR-8 ovarian
U251 CNS = system: U251 CNS
BT-549 breast = system: BT-549 breast
OVCAR-3 ovarian = system: OVCAR-3 ovarian
HCC-2998 colon = system: HCC-2998 colon
DU-145 prostate = system: DU-145 prostate
SR leukemia = system: SR leukemia
ACHN renal = system: ACHN renal
M14 melanoma = system: M14 melanoma
MALME-3M melanoma = system: MALME-3M melanoma
786-0 renal = system: 786-0 renal
SK-MEL-2 melanoma = system: SK-MEL-2 melanoma
SF-268 CNS = system: SF-268 CNS
HCT-15 colon = system: HCT-15 colon
IGROV1 ovarian = system: IGROV1 ovarian
PC-3 prostate = system: PC-3 prostate
SN12C renal = system: SN12C renal
MCF7 breast = system: MCF7 breast
NCI-H226 lung = system: NCI-H226 lung
KM12 colon = system: KM12 colon
MDA-MB-435 = system: MDA-MB-435
MOLT-4 leukemia = system: MOLT-4 leukemia
A498 renal = system: A498 renal
K-562 leukemia = system: K-562 leukemia
NCI-H522 lung = system: NCI-H522 lung
SNB-75 CNS = system: SNB-75 CNS
CCRF-CEM leukemia = system: CCRF-CEM leukemia
SK-OV-3 ovarian = system: SK-OV-3 ovarian
T-47D breast = system: T-47D breast
HOP-92 NSCLC = system: HOP-92 NSCLC
NCI-H460 lung = system: NCI-H460 lung

CS(=O)(=O)c1ccc2c(c1)c1c(n2S(=O)(=O)c2ccc(Cl)cc2)CCCC1
GI50 (OVCAR-5 ovarian): 5.37 µM | TGI (OVCAR-5 ovarian): > 100 µM | GI50 (SF-539 CNS): 3.15 µM | TGI (SF-539 CNS): > 100 µM | GI50 (NCI/ADR-RES ovarian): 2330 nM | TGI (NCI/ADR-RES ovarian): > 100 µM | GI50 (EKVX NSCLC): 5.55 µM | TGI (EKVX NSCLC): > 100 µM | GI50 (HCT-116 colon): 3.5 µM | TGI (HCT-116 colon): > 100 µM | GI50 (CAKI-1 renal): 3.12 µM | TGI (CAKI-1 renal): > 100 µM | GI50 (LOX IMVI melanoma): 4.32 µM | TGI (LOX IMVI melanoma): > 100 µM | GI50 (TK-10 renal): > 100 µM | TGI (TK-10 renal): > 100 µM | GI50 (SNB-19 CNS): 5.54 µM | TGI (SNB-19 CNS): > 100 µM | GI50 (SK-MEL-5 melanoma): 3.92 µM | TGI (SK-MEL-5 melanoma): > 100 µM | GI50 (MDA-MB-231 breast): 4.25 µM | TGI (MDA-MB-231 breast): > 100 µM | GI50 (SK-MEL-28 melanoma): 34.8 µM | TGI (SK-MEL-28 melanoma): > 100 µM | GI50 (SF-295 CNS): 4.08 µM | TGI (SF-295 CNS): > 100 µM | GI50 (HOP-62 NSCLC): 4.3 µM | TGI (HOP-62 NSCLC): > 100 µM | GI50 (UO-31 renal): 3.82 µM | TGI (UO-31 renal): > 100 µM | GI50 (UACC-257 melanoma): 10.3 µM | TGI (UACC-257 melanoma): > 100 µM | GI50 (UACC-62 melanoma): 3.14 µM | TGI (UACC-62 melanoma): > 100 µM | GI50 (RPMI-8226 leukemia): 3.72 µM | TGI (RPMI-8226 leukemia): > 100 µM | GI50 (SW-620 colon): 2820 nM | TGI (SW-620 colon): > 100 µM | GI50 (OVCAR-8 ovarian): 4.11 µM | TGI (OVCAR-8 ovarian): > 100 µM | GI50 (U251 CNS): 4.68 µM | TGI (U251 CNS): > 100 µM | GI50 (BT-549 breast): 5.39 µM | TGI (BT-549 breast): > 100 µM | GI50 (OVCAR-3 ovarian): 3.56 µM | TGI (OVCAR-3 ovarian): > 100 µM | GI50 (HCC-2998 colon): 3.57 µM | TGI (HCC-2998 colon): > 100 µM | GI50 (DU-145 prostate): 4.3 µM | TGI (DU-145 prostate): > 100 µM | GI50 (SR leukemia): 594 nM | TGI (SR leukemia): > 100 µM | GI50 (ACHN renal): 7.56 µM | TGI (ACHN renal): > 100 µM | GI50 (M14 melanoma): 3.69 µM | TGI (M14 melanoma): > 100 µM | GI50 (MALME-3M melanoma): 7.11 µM | TGI (MALME-3M melanoma): > 100 µM | GI50 (786-0 renal): 4.73 µM | TGI (786-0 renal): > 100 µM | GI50 (SK-MEL-2 melanoma): 2150 nM | TGI (SK-MEL-2 melanoma): 7.44 µM | GI50 (SF-268 CNS): > 100 µM | TGI (SF-268 CNS): > 100 µM | GI50 (HCT-15 colon): 1930 nM | TGI (HCT-15 colon): > 100 µM | GI50 (IGROV1 ovarian): 5.24 µM | TGI (IGROV1 ovarian): > 100 µM | GI50 (PC-3 prostate): 3.42 µM | TGI (PC-3 prostate): > 100 µM | GI50 (SN12C renal): 5.19 µM | TGI (SN12C renal): > 100 µM | GI50 (MCF7 breast): 2610 nM | TGI (MCF7 breast): > 100 µM | GI50 (NCI-H226 lung): 3.22 µM | TGI (NCI-H226 lung): > 100 µM | GI50 (KM12 colon): 3.16 µM | TGI (KM12 colon): > 100 µM | GI50 (MDA-MB-435): 583 nM | TGI (MDA-MB-435): 3.29 µM | GI50 (MOLT-4 leukemia): 4.49 µM | TGI (MOLT-4 leukemia): > 100 µM | GI50 (A498 renal): > 100 µM | TGI (A498 renal): > 100 µM | GI50 (K-562 leukemia): 706 nM | TGI (K-562 leukemia): > 100 µM | GI50 (NCI-H522 lung): 1080 nM | TGI (NCI-H522 lung): 3.39 µM | GI50 (SNB-75 CNS): 1420 nM | TGI (SNB-75 CNS): 6.15 µM | GI50 (CCRF-CEM leukemia): 3.16 µM | TGI (CCRF-CEM leukemia): > 100 µM | GI50 (SK-OV-3 ovarian): 4.95 µM | TGI (SK-OV-3 ovarian): > 100 µM | GI50 (T-47D breast): 3.71 µM | TGI (T-47D breast): > 100 µM | GI50 (HOP-92 NSCLC): 3.04 µM | TGI (HOP-92 NSCLC): > 100 µM | GI50 (NCI-H460 lung): 3.5 µM | TGI (NCI-H460 lung): > 100 µM
